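All cell lines were grown in 96-well plates and treated with compound for 48 hours. GI50 is the concentration that inhibits growth by half.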 Active and inactive are the calls of the source. No stated cut-off is given here; in the data, active = GI50 up to about 1.1 µM and inactive = higher.
Assays:
Experiment in all cases: NCI tumour cell line growth inhibition, 48 h
[1] = tested on: NCI-H23
[2] = tested on: Hs-578T
[3] = tested on: NCI-H226
[4] = tested on: OVCAR-3
[5] = tested on: K562
[6] = tested on: RPMI-8226
[7] = tested on: KM12
[8] = tested on: Malme-3M
[9] = tested on: EKVX
[10] = tested on: HCT-15
[11] = tested on: SK-MEL-2
[12] = tested on: SF-539
[13] = tested on: HL-60
[14] = tested on: MDA-N
[15] = tested on: NCI-H460
[16] = tested on: A498
[17] = tested on: SF-268
[18] = tested on: PC-3
[19] = tested on: COLO 205
[20] = tested on: UACC-257

Structure (SMILES)	GI50 [1]	GI50 [2]	GI50 [3]	GI50 [4]	GI50 [5]	GI50 [6]	GI50 [7]	GI50 [8]	GI50 [9]	GI50 [10]	GI50 [11]	GI50 [12]	GI50 [13]	GI50 [14]	GI50 [15]	GI50 [16]	GI50 [17]	GI50 [18]	GI50 [19]	GI50 [20]
CCOC(=O)C12OC(CCC1=O)C(C(=O)OC)=C2C(=O)OC (stereo unspecified)	> 10 µM (inactive)	> 10 µM (inactive)	> 10 µM (inactive)	> 10 µM (inactive)	> 10 µM (inactive)	> 10 µM (inactive)	> 10 µM (inactive)	> 10 µM (inactive)	> 10 µM (inactive)	> 10 µM	> 10 µM (inactive)	> 10 µM (inactive)	> 10 µM (inactive)	> 10 µM (inactive)	> 10 µM (inactive)	> 10 µM (inactive)	> 10 µM (inactive)	> 10 µM (inactive)	> 10 µM (inactive)	> 10 µM (inactive)
OC1CN2Cc3cc4c(cc3[C@]13C=C[C@@H](O)CC23)OCO4 (stereo partly specified)	36.1 µM (inactive)	57.5 µM (inactive)	> 100 µM (inactive)	37.2 µM (inactive)	23.7 µM (inactive)	32.6 µM (inactive)	18.1 µM (inactive)	35.8 µM (inactive)	15.4 µM (inactive)	30.3 µM	31.6 µM (inactive)	45.6 µM (inactive)	21.2 µM (inactive)	17 µM (inactive)	14.4 µM (inactive)	34.4 µM (inactive)	29.3 µM (inactive)	27.6 µM (inactive)	22.3 µM (inactive)	7.89 µM (inactive)
O=C(O)c1cc(-c2ccc3c(O)c(O)ccc3c2)ccc1O	43.6 µM (inactive)	> 75 µM (inactive)	28 µM (inactive)	> 75 µM (inactive)	13.1 µM (inactive)	15.9 µM (inactive)	47.4 µM (inactive)	> 75 µM (inactive)	> 75 µM (inactive)	41.3 µM	> 75 µM (inactive)	> 75 µM (inactive)	16.8 µM (inactive)	25.2 µM (inactive)	> 7.5 µM (inactive)	72.9 µM (inactive)	> 75 µM (inactive)	> 75 µM (inactive)	24.9 µM (inactive)	68.4 µM (inactive)
CCOC(=O)C(CS)NC(=O)CCCCCCCC(=O)NC(CS)C(=O)OCC (stereo unspecified)	> 100 µM (inactive)	> 100 µM (inactive)	> 100 µM (inactive)	> 100 µM (inactive)	> 100 µM (inactive)	> 100 µM (inactive)	> 100 µM (inactive)	92 µM (inactive)	> 100 µM (inactive)	> 100 µM	36.9 µM (inactive)	> 100 µM (inactive)	25.8 µM (inactive)	> 100 µM (inactive)	> 100 µM (inactive)	> 100 µM (inactive)	–	> 100 µM (inactive)	> 100 µM (inactive)	34.4 µM (inactive)
O=C(O)C12C3CCC(CC3)C1(C(=O)O)C1CCC2C1 (stereo unspecified)	> 100 µM (inactive)	> 100 µM (inactive)	> 100 µM (inactive)	> 100 µM (inactive)	> 100 µM (inactive)	> 100 µM (inactive)	> 100 µM (inactive)	> 100 µM (inactive)	–	> 100 µM	> 100 µM (inactive)	> 100 µM (inactive)	> 100 µM (inactive)	> 100 µM (inactive)	> 100 µM (inactive)	> 100 µM (inactive)	> 100 µM (inactive)	> 100 µM (inactive)	> 100 µM (inactive)	> 100 µM (inactive)
C=C1C[C@@H](O)[C@@H](Br)C(C)(C)[C@]12CCC(C)(Cl)C(Br)C2 (stereo partly specified)	21.1 µM (inactive)	27.4 µM (inactive)	20.9 µM (inactive)	15.7 µM (inactive)	53.5 µM (inactive)	34 µM (inactive)	0.929 µM (active)	22 µM (inactive)	4.35 µM (inactive)	35.1 µM	15.1 µM (inactive)	16.8 µM (inactive)	25.6 µM (inactive)	25.5 µM (inactive)	27.3 µM (inactive)	> 46.9 µM (inactive)	32 µM (inactive)	0.431 µM (active)	4.86 µM (inactive)	21.6 µM (inactive)
Cc1nn(C2OC(CO)C(O)C(F)C2O)c(=O)[nH]c1=O (stereo unspecified)	> 100 µM (inactive)	> 100 µM (inactive)	> 100 µM (inactive)	> 100 µM (inactive)	> 100 µM (inactive)	> 100 µM (inactive)	–	> 100 µM (inactive)	–	> 100 µM	> 100 µM (inactive)	> 100 µM (inactive)	> 100 µM (inactive)	> 100 µM (inactive)	> 100 µM (inactive)	> 100 µM (inactive)	> 100 µM (inactive)	> 100 µM (inactive)	> 100 µM (inactive)	> 100 µM (inactive)
O=C(Nc1ccc(Cl)cc1)c1cc(S(=O)(=O)N2CCNNC2=O)c(S)cc1Cl	–	> 100 µM (inactive)	> 100 µM (inactive)	> 100 µM (inactive)	> 100 µM (inactive)	55.1 µM (inactive)	> 100 µM (inactive)	> 100 µM (inactive)	> 100 µM (inactive)	> 100 µM	> 100 µM (inactive)	> 100 µM (inactive)	> 100 µM (inactive)	> 100 µM (inactive)	> 100 µM (inactive)	> 100 µM (inactive)	> 100 µM (inactive)	> 100 µM (inactive)	> 100 µM (inactive)	> 100 µM (inactive)
C[n+]1c(-c2ccc(/C=N\NC(=O)c3ccc(C(=O)N/N=C/c4ccc(-c5cn6ccsc6[n+]5C)cc4)cc3)cc2)cn2ccsc21	17.8 µM (inactive)	19.9 µM (inactive)	16.9 µM (inactive)	11.6 µM (inactive)	14 µM (inactive)	14.2 µM (inactive)	23 µM (inactive)	21 µM (inactive)	15.8 µM (inactive)	16 µM	30.8 µM (inactive)	23.6 µM (inactive)	16.5 µM (inactive)	32.8 µM (inactive)	19.4 µM (inactive)	17.3 µM (inactive)	–	17.4 µM (inactive)	25 µM (inactive)	21.7 µM (inactive)
CC1(C)CC2(C)OC(=N)C1(C#N)C2(C#N)C#N (stereo unspecified)	8.32 µM (inactive)	13 µM (inactive)	> 10 µM (inactive)	–	6.93 µM (inactive)	5.65 µM (inactive)	16 µM (inactive)	12.3 µM (inactive)	5.02 µM (inactive)	2.36 µM	17.4 µM (inactive)	12.1 µM (inactive)	2.98 µM (inactive)	7.08 µM (inactive)	–	15.2 µM (inactive)	15.6 µM (inactive)	16.1 µM (inactive)	2.56 µM (inactive)	7.4 µM (inactive)
COc1c(C)c2c(c(O)c1C/C=C(\C)CCC(=O)O)C(=O)OC2 [MYCOPHENOLIC ACID]	0.471 µM (active)	2.51 µM (inactive)	> 46.9 µM (inactive)	2.91 µM (inactive)	0.396 µM (active)	1.7 µM (inactive)	0.944 µM (active)	–	> 100 µM (inactive)	0.423 µM	> 51.4 µM (inactive)	1.46 µM (inactive)	1.43 µM (inactive)	1.46 µM (inactive)	0.488 µM (active)	> 100 µM (inactive)	1.37 µM (inactive)	1.1 µM (active)	1.08 µM (active)	4.51 µM (inactive)
O=C(O)c1nc2ccccc2nc1NCc1ccc(F)cc1	54 µM (inactive)	61.8 µM (inactive)	51.6 µM (inactive)	42.2 µM (inactive)	56.1 µM (inactive)	60.4 µM (inactive)	47.1 µM (inactive)	–	45.8 µM (inactive)	16.6 µM	94.4 µM (inactive)	> 100 µM (inactive)	45.8 µM (inactive)	> 100 µM (inactive)	60.7 µM (inactive)	> 100 µM (inactive)	57 µM (inactive)	> 100 µM (inactive)	31.9 µM (inactive)	> 100 µM (inactive)
COC1(OC)N=C(N)C2(C#N)/C(=N/N(C)C)CC(C)C12C#N (stereo unspecified)	> 100 µM (inactive)	> 100 µM (inactive)	> 100 µM (inactive)	–	> 100 µM (inactive)	> 10 µM (inactive)	> 100 µM (inactive)	> 100 µM (inactive)	> 100 µM (inactive)	> 100 µM	> 100 µM (inactive)	> 100 µM (inactive)	> 100 µM (inactive)	> 100 µM (inactive)	–	> 100 µM (inactive)	> 100 µM (inactive)	> 100 µM (inactive)	> 100 µM (inactive)	> 100 µM (inactive)
Nc1ccc(OCCCc2c(-c3ccccc3)[nH]c(N)nc2=O)cc1	47.2 µM (inactive)	12.3 µM (inactive)	31 µM (inactive)	25.2 µM (inactive)	74.5 µM (inactive)	84.9 µM (inactive)	67.8 µM (inactive)	26.8 µM (inactive)	0.398 µM (active)	> 100 µM	–	28.1 µM (inactive)	86.9 µM (inactive)	31.9 µM (inactive)	24.6 µM (inactive)	16.9 µM (inactive)	> 100 µM (inactive)	41.7 µM (inactive)	26 µM (inactive)	80.5 µM (inactive)
O=C(/C=C/c1ccccc1)c1cc(CN2CCOCC2)c(O)c(CN2CCOCC2)c1	22.5 µM (inactive)	35.6 µM (inactive)	26.6 µM (inactive)	12.2 µM (inactive)	5.47 µM (inactive)	4.55 µM (inactive)	15.5 µM (inactive)	–	25.3 µM (inactive)	7.5 µM	23.4 µM (inactive)	15.1 µM (inactive)	4.57 µM (inactive)	19.7 µM (inactive)	6.71 µM (inactive)	12.9 µM (inactive)	19.1 µM (inactive)	19.2 µM (inactive)	11.3 µM (inactive)	14.3 µM (inactive)

From ChEMBL document CHEMBL1201862, “PubChem BioAssay data set” (2004)
